The values below come from ChEMBL document CHEMBL5614404, “Optimization of potent, broad-spectrum, and specific anti-influenza compounds targeting RNA polymerase PA-PB1 heterodimerization” (Eur J Med Chem, 2024).

Assay [1] addresses T1, RNA-directed RNA polymerase (Influenza A virus (strain A/Puerto Rico/8/1934 H1N1), UniProt P03428+P03431+P03433). The experiment in a line: Inhibition of Influenza A virus RdRp transfected in HEK293T cells co-expressing PA/PB1/PB2/NP/firefly luciferase/Renilla luciferase preincubated for 4 hrs followed by medium replacement with compound measured after 20 hrs by minireplicon assay. The class given is cell-based. A general note: Replicon systems follow genome replication, usually without infectious particles.

The subject of assay [2] is Influenza A virus. The assay is described as follows: Antiviral activity against Influenza A virus PR/8/34 infected in human A549 cells assessed as reduction in viral progeny preincubated for 1 hr followed by media replacement with compound measured after 23 hrs by virus yeild reduction assay. The following applies: for EC50: PR/8/34, A549; for Activity: time 24.0 hrs. The class given is functional, organism-based.

For assay [3], the target named is T1, RNA-directed RNA polymerase. The experiment in a line: Inhibition of Influenza A virus RdRp transfected in HEK293T cells co-expressing PA/PB1/PB2/NP/firefly luciferase/Renilla luciferase assessed as impaired nuclear import preincubated for 4 hrs followed by medium replacement with compound measured after 20 hrs by minireplicon assay. The class given is cell-based.

Assay [4] deals with Influenza A virus. The experiment in a line: Antiviral activity against Oseltamivir-resistant Influenza A virus Parma/24/09 (H1N1) infected in MDCK cells incubated for 48 hrs by plaque reduction assay. The class given is functional, organism-based.
The test system of assay [5] is Influenza A virus. The assay is described as follows: Antiviral activity against Amantadine-resistant Influenza A virus California/07/2009 (H1N1) clinical isolate infected in MDCK cells expressing ST6Gal by crystal violet staining based plaque reduction assay. The class given is functional, organism-based. On the technique in general: In a plaque reduction assay, fewer plaques than in the control indicate reduced infectivity or spread.

Assay [6] concerns Influenza A virus. The assay is described as follows: Antiviral activity against Amantadine/Oseltamivir-resistant Influenza A virus Denmark/528/2009 (H1N1) clinical isolate infected in MDCK cells expressing ST6Gal by crystal violet staining based plaque reduction assay. The class given is functional, organism-based.
Assay [7] concerns Influenza A virus. The assay is described as follows: Antiviral activity against Amantadine-resistant/Oseltamivir-sensitive Influenza A virus WSN/1933 (H1N1) infected in MDCK cells by plaque reduction assay. The class given is functional, organism-based.
Assay [8] concerns Influenza A virus. The experiment in a line: Antiviral activity against Amantadine-resistant/Oseltamivir-sensitive Influenza A virus California/07/2009 (H1N1) infected in MDCK cells by plaque reduction assay. The class given is functional, organism-based.
Assay [9] deals with Influenza A virus. The assay is described as follows: Antiviral activity against Amantadine-resistant/Oseltamivir-sensitive Influenza A virus Switzerland/9715293/2013 (H3N2) infected in MDCK cells by plaque reduction assay. The class given is functional, organism-based.
Assay [10] concerns Influenza A virus. The experiment in a line: Antiviral activity against Amantadine/Oseltamivir-resistant Influenza A virus North Carolina/39/2009 (H1N1) infected in MDCK cells by plaque reduction assay. The class given is functional, organism-based.
The test system of assay [11] is Influenza A virus. The assay is described as follows: Antiviral activity against Amantadine/Oseltamivir-resistant Influenza A virus Washington/29/2009 (H1N1) infected in MDCK cells by plaque reduction assay. The class given is functional, organism-based.
In assay [12] the test system is Influenza A virus. The assay is described as follows: Antiviral activity against Amantadine/Oseltamivir-resistant Influenza A virus Texas/04/2009 (H1N1) infected in MDCK cells by plaque reduction assay. The class given is functional, organism-based.
The test system of assay [13] is Influenza A virus. The assay is described as follows: Antiviral activity against Amantadine/Oseltamivir-resistant Influenza A virus Denmark/528/2009 (H1N1) infected in MDCK cells by plaque reduction assay. The class given is functional, organism-based.
For assay [14], the system named is Influenza B virus. The assay is described as follows: Antiviral activity against Amantadine-resistant/Oseltamivir-sensitive Influenza B virus Wisconsin/01/2010 infected in MDCK cells by plaque reduction assay. The class given is functional, organism-based. The following applies: Wisconsin/01/2010, MDCK.

In general, IC50 refers to the concentration that gives 50% inhibition. In the case of `O=C(Nc1sc2c(c1C(=O)Nc1ccc(Cl)cc1)CCCCC2)c1ccccc1O`, the IC50 in assay [1] came to 1 µM.

As to `O=C(Nc1sc2c(c1C(=O)Nc1ccccn1)CCCCC2)c1ccc([N+](=O)[O-])cc1`, the IC50 in [1] was determined as 0.27 µM.

`O=C(Nc1sc2c(c1C(=O)Nc1nccs1)CCCCC2)c1ccccc1O`: the IC50 in assay [1] was found to be 0.33 µM.

Usually EC50 stands for the midpoint of the concentration-response curve. Regarding `NC(=O)c1nc(F)cnc1O`, in assay [2], the EC50 was 7.93 µM.

As for `N#Cc1ccc(C(=O)Nc2sc3c(c2C(=O)Nc2ccccc2O)CCCCC3)cc1`, the EC50 in [3] came to 0.032 µM; in [4], 0.28 µM; in [2], 0.14 µM. Moreover, the Activity entry in [2] is “Dose-Dependent Effect”.

For `O=C(Nc1sc2c(c1C(=O)Nc1ccc(F)cc1)CCCCC2)c1ccccc1O`, the IC50 in assay [1] was found to be 0.47 µM.

Consider `NC(=O)c1ncn([C@@H]2O[C@H](CO)[C@@H](O)[C@H]2O)n1` [RIBAVIRIN], for which the values for the EC50 in assay [3] and in [4] were 21.7 µM and 22 µM, respectively.

Regarding `N#Cc1ccc(C(=O)Nc2sc3c(c2C(=O)Nc2ccc(C(F)(F)F)cc2)CCCCC3)cc1`, the EC50 in assay [3] is over 10 µM.

In the case of `C[C@@H](c1ccccc1)n1nnnc1[C@H](c1ccsc1)N1CCC(n2c(=O)[nH]c3ccccc32)CC1`, the EC50 in [5] and in [6] was 0.6 µM each time.

On to `O=C(Nc1sc2c(c1C(=O)Nc1ccccn1)CCCCC2)c1ccccc1O`, for which, in assay [1], the IC50 stood at 2.8 µM.

For `O=C1C(c2ncc([N+](=O)[O-])s2)CC[C@@H]2CCCC[C@@H]12` (some centres not stated), the EC50 in assay [7], in [8], in [9], in assay [10], in assay [11] and in assay [12] was 0.93 µM in each case. Further, the concentration giving a half-maximal response (EC50) in [13] and in assay [14] was 0.93 µM throughout.

Turning to `O=C(Nc1sc2c(c1C(=O)Nc1ccccc1O)CCCCC2)c1ccc([N+](=O)[O-])cc1O`, the EC50 in [3] was found to be 0.13 µM; in [4] it was 0.081 µM; in assay [2], 0.087 µM. Further, the Activity result in assay [2] is “Dose-Dependent Effect”.
